The pEC50 is the EC50 on a negative log10 scale, so that one unit is a factor of ten.

pEC50: −log10 of the molar value.

T1 sequence (P14902 whole entry): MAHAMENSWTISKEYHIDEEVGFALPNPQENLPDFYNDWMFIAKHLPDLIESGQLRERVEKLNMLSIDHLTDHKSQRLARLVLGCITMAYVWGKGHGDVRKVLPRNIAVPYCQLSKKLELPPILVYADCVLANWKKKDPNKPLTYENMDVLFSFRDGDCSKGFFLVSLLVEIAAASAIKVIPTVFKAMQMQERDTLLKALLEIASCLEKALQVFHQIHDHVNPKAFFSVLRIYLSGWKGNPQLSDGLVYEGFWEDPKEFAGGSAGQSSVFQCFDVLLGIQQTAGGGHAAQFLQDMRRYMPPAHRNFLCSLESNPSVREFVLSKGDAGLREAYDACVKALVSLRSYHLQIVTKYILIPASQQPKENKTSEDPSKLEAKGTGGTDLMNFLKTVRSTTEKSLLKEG

One test addresses T1, IDO1 (Homo sapiens, UniProt P14902).
T1 construct: HeLa cells were treated with a test compound in the presence of IFNγ, which induces IDO1 expression; host or cells: H1-HeLa cells, IDO1 induced with IFNγ
In words: Cell-based (HeLa) assay for measurement of IDO1 inhibition (kynurenine levels in supernatant after IFNγ induction). To be noted: HeLa cells, IFNγ-induced IDO1, kynurenine in supernatant after 48 hour incubation; geometric mean of a minimum of four determinations. The method in brief:
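HeLa cells, 1,250 per well, treated with compound (0.5% DMSO final) plus IFNγ to induce IDO1, for 48 h. Supernatant kynurenine measured by TCA hydrolysis at 60 °C, then p-dimethylaminobenzaldehyde, absorbance 480 nm. EC50 from a four-parameter fit normalized to −/+IFNγ controls; geometric mean of at least four runs.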
Turning to `O=c1onc(-c2ccnc3nc(CO)[nH]c23)n1-c1ccc(F)c(Cl)c1` [Example 111, 4-(3-Chloro-4-fluorophenyl)-3-(2-(hydroxymethyl)-1H-imidazo[4,5-b]pyridin-7-yl)-1,2,4-oxadiazol-5(4H)-one], the pEC50 was 5.35.

As for `O/N=C(\Nc1ccc(Cl)c2ccccc12)c1ccnc2nc[nH]c12` [Example 105, N-(4-Chloronaphthalen-1-yl)-N′-hydroxy-1H-imidazo[4,5-b]pyridine-7-carboximidamide], the pEC50 was 5.52.

Compound `CN(C)CCc1nc2c(/C(=N/O)Nc3ccc(F)c(Cl)c3)cc(F)c(F)c2[nH]1` [Example 53, N-(3-Chloro-4-fluorophenyl)-2-(2-(dimethylamino)ethyl)-6,7-difluoro-N′-hydroxy-1H-benzo[d]imidazole-4-carboximidamide] showed a pEC50 of 6.04.

`CN1CCCC(Nc2nc3nccc(/C(=N/O)Nc4ccc(F)c(Cl)c4)c3[nH]2)C1` (stereo not shown) [Example 278, N-(3-chloro-4-fluorophenyl)-N′-hydroxy-2-((1-methylpiperidin-3-yl)amino)-1H-imidazo[4,5-b]pyridine-7-carboximidamide] had a negative-log EC50 (pEC50) of 5.97.

In turn, `CCNCc1nc2nccc(/C(=N/O)Nc3ccc(F)c(Cl)c3)c2[nH]1` [Example 114, N-(3-Chloro-4-fluorophenyl)-2-((ethylamino)methyl)-N′-hydroxy-1H-imidazo[4,5-b]pyridine-7-carboximidamide] had a pEC50 of 6.03.

In turn, `O/N=C(\Nc1ccc(F)c(Cl)c1)c1ccnc2nc(CNCC3CCCOC3)[nH]c12` (stereo not shown) [Example 129, N-(3-Chloro-4-fluorophenyl)-N′-hydroxy-2-((((tetrahydro-2H-pyran-3-yl)methyl)amino)methyl)-1H-imidazo[4,5-b]pyridine-7-carboximidamide] had a pEC50 of 5.59.

In turn, `CCNCc1nc2c(F)ccc(/C(=N/O)Nc3ccc(F)c(Cl)c3)c2[nH]1` [Example 287, N-(3-chloro-4-fluorophenyl)-2-((ethylamino)methyl)-4-fluoro-N′-hydroxy-1H-benzo[d]imidazole-7-carboximidamide] had a pEC50 of 5.78.

Turning to `OCc1nc2nccc(/C(=N/O)Nc3ccc(F)c(Cl)c3)c2[nH]1` [Example 177, N-(3-Chloro-4-fluorophenyl)-N′-hydroxy-2-(hydroxymethyl)-1H-imidazo[4,5-b]pyridine-7-carboximidamide], the negative logarithm of the EC50 (pEC50) is 5.78.

Still in this test, the particulars now being: HeLa cells, IFNγ-induced IDO1, kynurenine in supernatant, 48 hour incubation; geometric mean of a minimum of four determinations.
As for `CC1CN(C(C)CNc2nc3nccc(/C(=N/O)Nc4ccc(F)c(Cl)c4)c3[nH]2)CC(C)O1` (stereo not shown) [Example 483, N-(3-chloro-4-fluorophenyl)-2-((2-(2,6-dimethylmorpholino)propyl)amino)-N′-hydroxy-1H-imidazo[4,5-b]pyridine-7-carboximidamide], the pEC50 was 6.18.

In turn, `Cn1nccc1CNc1nc2nccc(/C(=N/O)Nc3ccc(F)c(Cl)c3)c2[nH]1` [Example 358, N-(3-chloro-4-fluorophenyl)-N′-hydroxy-2-(((1-methyl-1H-pyrazol-5-yl)methyl)amino)-1H-imidazo[4,5-b]pyridine-7-carboximidamide] showed a pEC50 of 5.06.

Compound `CN(CCc1nc2nccc(/C(=N/O)Nc3ccc(F)c(Cl)c3)c2[nH]1)CCC1CCOCC1` [Example 401, N-(3-chloro-4-fluorophenyl)-N′-hydroxy-2-(2-(methyl(2-(tetrahydro-2H-pyran-4-yl)ethyl)amino)ethyl)-1H-imidazo[4,5-b]pyridine-7-carboximidamide] gave a pEC50 of 6.24.

In the case of `CN1CCCC(Nc2nc3c(F)c(F)cc(/C(=N/O)Nc4ccc(F)c(Cl)c4)c3[nH]2)C1` (stereo not shown) [Example 443, N-(3-chloro-4-fluorophenyl)-4,5-difluoro-N′-hydroxy-2-((1-methylpiperidin-3-yl)amino)-1H-benzo[d]imidazole-7-carboximidamide], the pEC50 is 6.41.

In turn, `O/N=C(\Nc1ccc(F)c(Cl)c1)c1cc(F)c(F)c2nc(N[C@H]3CCCNC3)[nH]c12` [Example 445, (S)—N-(3-chloro-4-fluorophenyl)-4,5-difluoro-N′-hydroxy-2-(piperidin-3-ylamino)-1H-benzo[d]imidazole-7-carboximidamide] had a pEC50 of 5.71.

These data come from patent US9951065B2 (Gilead Sciences, Inc., priority 2015, dated 2018).
